Values quoted from earlier work, collected in patent US8178083B2, “Treatment of optic neuritis” (Ares Trading, S.A., priority 2005, dated 2012).

Tested on: patients with acute isolated unilateral optic neuritis

C[C@]12C=CC(=O)C=C1CC[C@@H]1[C@@H]2C(=O)C[C@@]2(C)[C@H]1CC[C@]2(O)C(=O)CO [prednisone]
risk of a new optic neuritis attack in the fellow eye versus placebo-treated group (oral prednisone 1 mg/kg per day for 14 days): more than double | patients who developed new bouts of optic neuritis (in either the affected or fellow eye) (within 2 years of follow-up): 30%
